Measurements published in US20040097566A1, “2-Substituted thiazolidinone and oxazolidinone derivatives for the inhibition of phosphatases and the treatment of cancer” (priority 2001, published 2004).
Entries after “also recorded” stand apart in the source; their conditions may differ.

Columns and labels:
[1] = target: T1, recombinant human enzyme Cdc25A (Homo sapiens, UniProt P30304); assay: Cdc25A phosphatase assay (OMFP substrate), inhibition of Cdc25A; format: biochemical; conditions: FIG. 1; inhibition calculated as a percentage of the solvent control
T1 construct: purchased Upstate Biotechnology (Lake Placid, N.Y.)
T1 sequence (P30304 1-524): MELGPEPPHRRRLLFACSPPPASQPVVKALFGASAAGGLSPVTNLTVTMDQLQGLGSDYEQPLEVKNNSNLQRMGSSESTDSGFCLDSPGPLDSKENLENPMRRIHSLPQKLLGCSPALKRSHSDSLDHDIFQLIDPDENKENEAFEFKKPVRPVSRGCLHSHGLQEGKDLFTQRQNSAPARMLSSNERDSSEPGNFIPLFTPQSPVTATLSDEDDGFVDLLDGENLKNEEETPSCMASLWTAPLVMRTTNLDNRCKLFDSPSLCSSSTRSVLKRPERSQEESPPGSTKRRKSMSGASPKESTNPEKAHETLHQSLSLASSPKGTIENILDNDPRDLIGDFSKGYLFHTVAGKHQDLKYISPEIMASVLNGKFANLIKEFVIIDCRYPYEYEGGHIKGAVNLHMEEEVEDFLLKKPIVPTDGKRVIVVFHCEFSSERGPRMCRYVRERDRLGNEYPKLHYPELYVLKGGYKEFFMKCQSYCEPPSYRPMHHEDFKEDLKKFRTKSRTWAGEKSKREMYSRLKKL
Method: Therefore, one method of […] screening of the compounds for anti-cancer activity is to test the activity of a particular compound for the ability to inhibit Cdc 25-type phosphatases. The results of one such test are shown in Example 161 below, and FIG. 1.
The phosphatase assay was performed in a 96-well microtiter plate using recombinant human enzyme Cdc25A purchased from Upstate Biotechnology (Lake Placid, N.Y.). Stock solutions of the test compounds were prepared in DMSO. Five μl of suitable dilutions of the compounds were added to the assay. The final volume of the assay was 100 μl. Twenty units of Cdc25A were pre-incubated with the test compounds at 37° C. for 10 min in the reaction mixture containing 100 mM Tris-HCl, pH 8.2, 40 mM NaCl, 1 mM DTT and 20% glycerol. The reaction was initiated by addition of the enzyme substrate […] (OMFP; Sigma, St. Louis, Mo.) at a final concentration of 40 μM and incubated at room temperature for 1 hour. This substrate allows fluorometric determination of enzyme activity. OMFP is readily metabolized to the fluorescent O-methylfluorescein by the enzyme Cdc25A, thus the absorbance of each reaction sample was determined at 477 nm using a plate reader (SpectraMax 340, Molecular Devices, Sunnyvale, Calif.). […] Inhibition of Cdc25A activity by test compounds was calculated as a percentage of the solvent control.

[2] = tested on: breast cancer cell line MDA-MB468; assay: MTT assay, human breast cancer cells; format: cell-based; conditions: concentrations in the range of 10^−7-10^−5 M or higher, FIGS. 2, 17
From the text: (§1) The anti-cancer activity of some of the compounds described herein have been tested in one type of such in vitro assay, as described in the examples herein, using a microculture assay with 3-(4,5-dimethylthiazol-2-yl)-2,5-diphenyltetrazolium bromide (“MTT”). This assay has an advantage over in vivo assay in that results are obtained within a week as opposed to several months. The assay can be carried out in 96-well microtiter plates. The MTT assay is based on the production of a dark blue formazan product by dehydrogenase in the mitochondria of live tumor cells after exposure to drug for 6 days [M. C. Alley, D. A. Scudiero, A. Monks, M. L. Hursey, M. J. Czerwinski, D. L. Fine, B. J. Abbout, J. G. Mayo, R. H. Shoemaker and M. R. Boyd, Cancer Res., 48, 589, 1988]. Thus, only live cells are stained and can be measured at 595 nm. Anti-cancer activity can be reported as percent of the tumor cell growth in the presence of compound at a defined dose compared to control/vehicle treated tumor cells. The results of some such screening assays are given in Examples 162a and 162b, and in FIGS. 2, 3, and 15-18.
(§2) The following human cancer cell lines were used to detect anti-cancer activity in the compounds of the invention.
The breast cancer cell line MDA-MB468 served to detect anti-breast cancer activity.
(§3) Cell lines were purchased from American Type Culture Collection (ATCC).
(§4) The cancer cell cultures were grown as recommended by the ATTC manuals. A549 cells and BX-PC-3 were grown in DME Dulbecco's modified Eagle's medium containing 4500 mg/L glucose; 4 mM L-glutamine; 10 U/ml Pen-G; 10 mcg/ml […] and 10% fetal calf serum (FCS). PC-3 and MDA-MB468 cells were grown in RPMI medium 1640 containing 2 mM L-glutamine; 10 U/ml Pen-G; 10 mcg/ml Streptomycin and 10% FCS. Cells were kept at 6% CO2 and 37° C. Cells were seeded on day zero in 96-well format tissue culture plates at suitable densities the day before starting treatment, in the media indicated above.
(§5) On day one, the compounds of the invention were added to the culture media of growing cells, containing 10% FCS. The cell media contained the compounds of the invention at one of six concentrations: […], 5×10^−8, 1×10^−7, 5×10^−7, 1×10^−6, and 1×10^−5M. 0.1% DMSO was used as vehicle control, and never exceeded 0.1% final concentration. On day four the media was removed and replaced with fresh media containing the compounds of the invention and FCS.
(§6) The assay is based on the cleavage of the yellow tetrazolium salt MTT to purple formazan crystals by dehydrogenase activity in active mitochondria. This conversion only occurs in living cells with intact/functional mitochondria.
(§7) On day five 10 μl of 5 mg/ml MTT dye are added to each well containing a cell culture. Cells are incubated for additional 4 hours at 6% CO2 and 37° C. Reaction is then stopped by adding 100 μl/well of a solubilization solution consisting of 10% Sodium Dodecyl Sulfate (SDS) and 10 mM HCl On day 6 the formazan crystals formed are solubilized and the resulting colored solution is quantified using a scanning multiwell spectrophotometer at a wavelength of 595 nm.

[3] = tested on: prostate cancer cell line PC-3; assay: MTT assay, human prostate cancer cells; format: cell-based; conditions: concentrations in the range of 10^−7-10^−5 M or higher, FIGS. 2, 16
From the text: as §1, §2
The prostate cancer cell line PC-3 was used to detect […]
as §3, §4, §5, §6, §7

[4] = tested on: non-small-cell lung cancer cell line A549; assay: MTT assay, human non-small-cell lung cancer cells; format: cell-based; conditions: concentrations in the range of 10^−7-10^−5 M or higher, FIGS. 3, 15
From the text: as §1, §2
The non-small-cell lung cancer cell line A549 was used to detect anti-lung cancer activity
as §3, §4, §5, §6, §7

[5] = tested on: pancreatic cancer cell line BX-PC-3; assay: MTT assay, human pancreatic cancer cells; format: cell-based; conditions: concentrations in the range of 10^−7-10^−5 M or higher, FIGS. 3, 18
From the text: as §1, §2
The pancreatic cancer cell line BX-PC-3 was used to detect anti-pancreatic cancer activity.
as §3, §4, §5, §6, §7

Question: With `O=C1N=C(N2CCCCC2)S/C1=C\c1cccc(-c2ccc(O)c(C34CC5CC(CC(C5)C3)C4)c2)c1` [Compound 3, 5-[3-(3-Adamantan-1-yl-4-hydroxy-phenyl)benzylidene]-2-piperidin-1-yl-thiazol-4-one] as the compound, how does the “selective inhibition of Cdc25 as compared to the dual specificity phosphatase MKP-1” value [1] read?
Answer: The value was “selective inhibition of Cdc25”.

Question: And the “anticancer cell activity / killing of breast cancer cells” value [2]?
Answer: The value was “kill significant percentages of the cells; also recorded: strong anticancer cell activity”.

Question: And the “anticancer cell activity / killing of prostate cancer cells” value [3]?
Answer: Its value is “kill significant percentages of the cells; also recorded: strong anticancer cell activity”.

Question: And the “anticancer cell activity / killing of non-small-cell lung cancer cells” value [4]?
Answer: Its value is “kill significant percentages of the cells; also recorded: strong anticancer all activity”.

Question: What about the “anticancer cell activity / killing of pancreatic cancer cells” value [5] of the same compound?
Answer: Its value is “kill significant percentages of the cells; also recorded: strong anticancer all activity”.

Question: What about the melting point of the same compound?
Answer: Its melting point is 311 to 312 °C.
